# Results: US20240216369A1, “THE USE OF A SPLICING MODULATOR FOR A TREATMENT SLOWING PROGRESSION OF HUNTINGTON'S DISEASE” (Novartis AG, priority 2019, published 2024)
# Key:
# [1] = First-in-human proof of concept study of oral branaplam in infants with Type 1 SMA: PK and safety; type: in vivo
# Text: • Principle set-up of a pediatric ACAT/PBPK model in GastroPlus™ software including physico-chemical parameters, physiological parameters, and formulation factors. The ACAT model was linked to a full PBPK model in which tissue-to-plasma concentration ratios were estimated via in silico method provided by GastroPlus™ software. • Estimation of the clearance (CL) using plasma concentrations of branaplam from an open-label multi-part first-in-human proof of concept study of oral branaplam, Part 1 only. […] The branaplam doses were escalated in subsequent cohorts until MTD was determined or when PK results confirmed that the MTD could not be reached due to a potential pharmacokinetic exposure plateau at higher doses. […]
# The aim of part one of this study was to determine the safety and tolerability of ascending weekly doses and to estimate the maximum tolerated dose (MTD) of oral/enteral branaplam (see Example 3) in infants with Type 1 SMA. All patients had exactly 2 copies of the SMN2 gene, as determined e.g. by quantitative real time PCR or droplet digital PCR.
# Patients were dosed once weekly with branaplam. The branaplam doses were escalated in subsequent cohorts until MTD was determined or when PK results confirmed that the MTD could not be reached due to a potential pharmacokinetic exposure plateau at higher doses. […]
# Huntingtin protein = assay: In vitro evaluation in SH-SY5Y cells: Huntingtin protein by Western blot; type: cell-based, human; details: 48 hours
# Protocol: Cultured human neuroblastoma (SH-SY5Y cell line) cells were treated at doses ranging from 5 nM-125 nM for 24 hours (for transcript evaluation) or 48 hours (for protein evaluation). RNA was quantified by Nanodrop 2000 (Thermo Scientific). cDNAs were synthesized from 140-400 ng RNA using Maxima First strand cDNA synthesis kit using a mix of oligo dT and random hexamers (Thermo Scientific) in 20 uL reaction at 25° C. for 10 min, 50° C. for 15 min then 85° C. for 5 min. Quantitative PCR was performed using Taqman Fast Advanced master mix (Thermo Scientific) in 20 uL with 4 uL of cDNA reaction and primers specific for each genes. The PCR steps were as follows: 95° C. for 20 sec then 40 cycles of 95° C. for 1 sec, 55° C. for 20 sec. […] Relative quantification of gene expression was performed using 2-AACT method. Fold changes in the mRNA expression level was calculated following normalization to […] glucuronidase beta (Gusb) as an endogenous reference (FIGS. 2a and 2b).
# For protein analysis, cells were lysed in RIPA buffer with protease and phosphatase inhibitor (Thermo Scientific). […] Total protein concentration was quantified using the BCA protein Assay (Thermo Scientific). […] Protein bands were quantified by Image J.
smiles,measurement,setting,value
"CC1(C)CC(Oc2ccc(-c3ccc(-c4cn[nH]c4)cc3O)nn2)CC(C)(C)N1 [Compound 18, 5-(1H-pyrazol-4-yl)-2-(6-((2,2,6,6-tetramethylpiperidin-4-yl)oxy)pyridazin-3-yl)phenol]",Tmax,"[1]; human, plasma, Type 1 SMA patients, oral, nominal dose range 6 to 60 mg/m^2, read-out: median time of maximum concentration (Tmax) in plasma",2.97 to 4 h
same,dose-limiting toxicity,"[1]; infants with Type 1 SMA, once weekly 6 to 60 mg/m^2, exposure 4-33 months",No dose-limiting toxicity was observed
same,reduction of normal Huntingtin protein,"Huntingtin protein; 5 nM-125 nM, Western blot",50-70%
same,EC50,Huntingtin protein; read-out: EC50 for HTT protein lowering,10 to 25 nM
